Source: patent US20090048218A1, “17Beta-CYANO-18A-HOMO-19-NOR-ANDROST-4-ENE DERIVATIVE, ITS USE AND MEDICAMENTS COMPRISING THE DERIVATIVE” (priority 2007, published 2009)
pIC50: −log10 of the molar value. Like-named read-outs stand apart in the source and are kept apart here.

Legend:
[1] = target: T1, mineralcorticoid receptor (MR) (Homo sapiens, UniProt P08235); experiment: MR antagonism, luciferase reporter cell line assay; format: cell-based
T1 sequence (P08235 1-984): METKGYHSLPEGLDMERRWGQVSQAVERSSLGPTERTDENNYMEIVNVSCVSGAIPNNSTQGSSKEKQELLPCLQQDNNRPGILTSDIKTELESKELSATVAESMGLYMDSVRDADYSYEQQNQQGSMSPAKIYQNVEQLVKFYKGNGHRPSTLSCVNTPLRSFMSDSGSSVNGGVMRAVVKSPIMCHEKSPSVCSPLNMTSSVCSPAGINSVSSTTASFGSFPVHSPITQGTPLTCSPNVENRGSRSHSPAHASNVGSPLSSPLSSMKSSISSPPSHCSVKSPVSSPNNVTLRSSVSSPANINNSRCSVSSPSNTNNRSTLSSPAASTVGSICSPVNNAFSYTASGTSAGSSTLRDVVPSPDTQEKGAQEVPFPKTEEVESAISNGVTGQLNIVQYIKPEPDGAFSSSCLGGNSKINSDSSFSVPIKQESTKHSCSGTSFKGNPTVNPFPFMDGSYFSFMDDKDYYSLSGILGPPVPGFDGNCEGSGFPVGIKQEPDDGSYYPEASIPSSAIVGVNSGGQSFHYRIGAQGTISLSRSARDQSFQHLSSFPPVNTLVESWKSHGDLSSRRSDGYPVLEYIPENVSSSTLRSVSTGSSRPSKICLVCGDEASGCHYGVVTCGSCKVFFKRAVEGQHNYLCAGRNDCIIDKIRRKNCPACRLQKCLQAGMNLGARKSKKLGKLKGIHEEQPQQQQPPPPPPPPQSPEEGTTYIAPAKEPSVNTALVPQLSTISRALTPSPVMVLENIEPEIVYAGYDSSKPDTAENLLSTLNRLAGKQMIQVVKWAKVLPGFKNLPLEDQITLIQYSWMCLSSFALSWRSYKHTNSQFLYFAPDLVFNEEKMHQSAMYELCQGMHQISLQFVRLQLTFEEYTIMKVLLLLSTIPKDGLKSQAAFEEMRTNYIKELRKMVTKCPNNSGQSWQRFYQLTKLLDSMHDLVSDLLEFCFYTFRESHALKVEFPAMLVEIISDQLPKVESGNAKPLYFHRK
Procedure: The derivatives according to the invention having the general chemical formula 1 have a very strong gestagenic activity. […] They should therefore have in vivo potassium-retaining, natriuretic (antimeralcorticoid) action. These properties were determined using the test described below:
For the culturing of the cells used for the assay, the culture medium used was DMEM (Dulbecco's Modified Eagle Medium: […] of glucose; PAA, #E15-009) with 10% FCS (Biochrom, S0115, batch #615B), 4 mM L-glutamine, 1% penicillin/streptomycin, 1 mg/ml of G418 and 0.5 μg/ml of puromycin.
Reporter cell lines were grown in a density of 4×10^4 cells per hollow in white, nontransparent tissue culture plates in each case having 96 hollows (PerkinElmer, #P12-106-017) and kept in 6% DCC—FCS (activated carbon-treated serum, for the removal of interfering components contained in the serum). The compounds to be investigated were added eight days later, and the cells were incubated with the compounds for 16 hours. The experiments were carried out in triplicate. At the end of the incubation, the effector-containing medium was removed and replaced by lysis buffer. After luciferase assay substrate (promega, #E1501) had been added, the plates containing the 96 hollows were then introduced into a microplate luminometer (Pherastar, BMG labtech), and the luminescence was measured. The IC50 values were evaluated using software for the calculation of dose-activity relationships.

PR = target: T2, PR (Rattus norvegicus, UniProt Q63449); experiment: maintenance of pregnancy test on the rat; format: in vivo; details: ovarectomized pregnant rats; for PR in vivo ED50 (pregnancy-maintaining dose): s.c. once daily from day 8 to day 15 or 21, with oestrone 5 μg/kg/day
T2 construct: The maintenance of pregnancy test on ovarectomized rats serves for the determination of the peripheral gestagenic activity of a compound; from tissue; host or cells: whole animal: pregnant, ovariectomized rats
T2 sequence (Q63449 1-923): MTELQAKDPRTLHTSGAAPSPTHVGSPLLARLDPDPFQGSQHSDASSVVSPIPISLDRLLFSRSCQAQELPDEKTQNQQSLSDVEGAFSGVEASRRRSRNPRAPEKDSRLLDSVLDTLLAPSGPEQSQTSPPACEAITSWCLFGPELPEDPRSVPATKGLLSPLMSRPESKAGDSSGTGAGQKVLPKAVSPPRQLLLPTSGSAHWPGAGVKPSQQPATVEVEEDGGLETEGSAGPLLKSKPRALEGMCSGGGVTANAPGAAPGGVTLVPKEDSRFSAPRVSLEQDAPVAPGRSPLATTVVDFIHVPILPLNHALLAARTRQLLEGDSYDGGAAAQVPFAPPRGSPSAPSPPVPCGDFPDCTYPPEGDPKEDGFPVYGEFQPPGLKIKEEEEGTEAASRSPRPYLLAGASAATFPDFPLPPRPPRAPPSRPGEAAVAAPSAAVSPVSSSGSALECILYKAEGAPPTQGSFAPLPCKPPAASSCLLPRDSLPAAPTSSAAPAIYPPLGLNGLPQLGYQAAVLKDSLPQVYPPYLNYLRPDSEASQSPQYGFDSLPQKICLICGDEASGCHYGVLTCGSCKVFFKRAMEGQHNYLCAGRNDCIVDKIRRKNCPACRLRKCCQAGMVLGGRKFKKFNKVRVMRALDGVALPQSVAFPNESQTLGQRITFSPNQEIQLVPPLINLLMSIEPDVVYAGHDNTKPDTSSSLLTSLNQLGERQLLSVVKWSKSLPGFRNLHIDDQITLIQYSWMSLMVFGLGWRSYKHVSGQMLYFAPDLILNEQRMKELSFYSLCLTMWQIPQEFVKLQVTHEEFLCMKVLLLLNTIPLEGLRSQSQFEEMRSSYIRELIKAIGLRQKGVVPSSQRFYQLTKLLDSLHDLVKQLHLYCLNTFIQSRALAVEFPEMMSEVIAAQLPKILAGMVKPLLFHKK
Source text: Carrying out the maintenance of pregnancy test on the rat:
In pregnant rats, the removal of the corpora lutea or oophorectomy induces an abortion. By means of the exogenous administration of progestins (gestagens) in combination with a suitable dose of an oestrogen, the maintenance of pregnancy is possible. The maintenance of pregnancy test on ovarectomized rats serves for the determination of the peripheral gestagenic activity of a compound.
Rats were paired overnight during proestrus. Pairing was checked on the morning of the following day by the appraisal of a vaginal smear. The presence of the sperm was evaluated here as day 1 of a commencing pregnancy. On day 8 of the pregnancy, the animals were ovarectomized under ether anaesthesia. The treatment with test compound and exogenous oestrogen (oestrone, 5 μg/kg/day) was carried out subcutaneously once daily from day 8 to day 15 or day 21 of the pregnancy. The first administration on day 8 was carried out two hours before oophorectomy. Intact control animals were given exclusively vehicle.
At the end of the experiment (day 15 or day 21), the animals were sacrificed under a CO2 atmosphere, and live foetuses (foetuses having a beating heart) and implantation sites (early resorptions and dead foetuses including autolysis and atrophic placentas) were counted in both uterine horns. On day 22, it was moreover possible to examine foetuses for malformations. In uteri without foetuses or implantation sites, the number of nidation sites was determined by staining with 10% strength ammonium sulphide solution. The maintenance of pregnancy rate was calculated as the quotient of the number of living foetuses and the total number of nidation sites (both resorbed and dead foetuses and nidation sites). For drospirenone, this value is 3.5 mg/kg/day.

[2] = reporter cell lines, 16 hours incubation, luciferase luminescence, triplicate
[3] = reporter cell lines, 16 hours incubation, luciferase luminescence, triplicate, read-out: MR antagonism IC50

pregnancy-maintaining dose (ED50) (PR; subcutaneous, with oestrone 5 μg/kg/day) | Structure (SMILES) | pIC50 [1] | MR antagonism activity [% of the maximum effect] [1, 2] | PR in vivo ED50 (pregnancy-maintaining dose) (PR) | pIC50 [1, 3]
 | CC[C@]12CC[C@H]3[C@@H](CCC4=CC(=O)CC[C@@H]43)[C@@H]1[C@@H]1C[C@@H]1[C@@H]2C#N (single isomer, unassigned) [17β-Cyano-15β,16β-methylene-18a-homo-19-nor-androst-4-en-3-one] | 7.74 | 103.44 % of the maximum effect | 0.01 mg/kg/d s.c. | 
 | CC[C@]12CC[C@H]3[C@@H]([C@H]4C[C@H]4C4=CC(=O)CC[C@@H]43)[C@@H]1[C@@H]1C[C@@H]1[C@@H]2C#N [17β-Cyano-6β,7β-15β,16β-bismethylene-18a-homo-19-nor-androst-4-en-3-one] |  | 97.52 % of the maximum effect | 0.1 mg/kg/d s.c. | 8.03
 | CC[C@]12CC[C@H]3[C@@H]([C@H](C)CC4=CC(=O)CC[C@@H]43)[C@@H]1CC[C@@H]2C#N [17β-Cyano-7α-methyl-18a-homo-19-nor-androst-4-en-3-one] |  | 99.07 % of the maximum effect |  | 7.80
 | CC[C@]12CC[C@H]3[C@@H]([C@@H]4C[C@@H]4C4=CC(=O)CC[C@@H]43)[C@@H]1[C@@H]1C[C@@H]1[C@]2(C)C#N [17β-Cyano-17α-methyl-6α,7α-methylene-15β,16β-methylene-18a-homo-19-nor-androst-4-en-3-one] |  | 89.49 % of the maximum effect | 1.1 mg/kg/d s.c. | 7.00
 | CC[C@]12CC[C@H]3[C@@H](CCC4=CC(=O)CC[C@@H]43)[C@@H]1[C@@H]1C[C@@H]1[C@]2(C)C#N [17β-Cyano-17α-methyl-15β,16β-methylene-18a-homo-19-nor-androst-4-en-3-one] |  | 64.87 % of the maximum effect | 0.1 mg/kg/d s.c. | 9.32
 | CC[C@]12CC[C@H]3[C@@H](CCC4=CC(=O)CC[C@@H]43)[C@@H]1CC[C@@H]2C#N [17β-Cyano-18a-homo-19-nor-androst-4-en-3-one] |  | 94.48 % of the maximum effect | 2.3 mg/kg/d s.c. | 8.04
3.5 mg/kg/day | C[C@]12CCC(=O)C=C1[C@@H]1C[C@@H]1[C@H]1[C@@H]3[C@@H]4C[C@@H]4[C@@]4(CCC(=O)O4)[C@@]3(C)CC[C@@H]12 [drospirenone, 6β, 7β-15β,16β-dimethylene-3-oxo-17-pregn-4-ene-21,17β-carbolactone, reference compound] |  |  |  | 
